pIC50: −log10 of the molar value.
Tests used:
K562/Adr = test: Cytotoxicity against human K562/ADR cells assessed as cell growth inhibition after 48 hrs by MTT assay; assay type: functional, cell-based
Bel-7402 = test: Cytotoxicity against human Bel7402 cells assessed as cell growth inhibition after 48 hrs by MTT assay; assay type: functional, cell-based; conditions: Bel-7402, 48 h
L02 = test: Cytotoxicity against human LO2 cells assessed as cell growth inhibition after 48 hrs by MTT assay; assay type: cell-based; conditions: L02, 48 h
MCF7 = test: Cytotoxicity against human MCF7 cells assessed as cell growth inhibition after 48 hrs by MTT assay; assay type: functional, cell-based; conditions: MCF7, 48 h
A549 = test: Cytotoxicity against human A549 cells assessed as cell growth inhibition after 48 hrs by MTT assay; assay type: functional, cell-based; conditions: A549, 48 h
K562 = test: Cytotoxicity against human K562 cells assessed as cell growth inhibition after 48 hrs by MTT assay; assay type: functional, cell-based; conditions: K562, 48 h
A549/TR = test: Cytotoxicity against human A549/T cells assessed as cell growth inhibition after 48 hrs by MTT assay; assay type: functional, cell-based
NCI/ADR-RES = test: Cytotoxicity against human MCF7/ADR cells assessed as cell growth inhibition after 48 hrs by MTT assay; assay type: functional, cell-based
Bel7402/5-FU = test: Cytotoxicity against human Bel7402/5-FU cells assessed as cell growth inhibition after 48 hrs by MTT assay; assay type: functional, cell-based

| SMILES | pIC50 (K562/Adr) | pIC50 (Bel-7402) | pIC50 (L02) | pIC50 (MCF7) | pIC50 (A549) | pIC50 (K562) | pIC50 (A549/TR) | pIC50 (NCI/ADR-RES) | pIC50 (Bel7402/5-FU) |
| --- | --- | --- | --- | --- | --- | --- | --- | --- | --- |
| C[C@H]1[C@H](C)CC[C@]2(C(=O)O)CC[C@]3(C)C(=CC[C@@H]4[C@@]5(C)CC[C@H](O)C(C)(C)[C@@H]5CC[C@]43C)[C@H]12 [URSOLIC ACID] | 4.42 | 4.19 | 4.23 | 4.15 | 4.11 | 4.39 |  |  |  |
| CC1(C)CC[C@]2(C(=O)OCCCCCCn3cc(F)c(=O)[nH]c3=O)CC[C@]3(C)C(=CC[C@@H]4[C@@]5(C)CC[C@H](O)C(C)(C)[C@@H]5CC[C@]43C)[C@@H]2C1 |  | 4.60 | 4.33 | 4.61 | 4.63 | 4.83 |  |  |  |
| O=c1[nH]cc(F)c(=O)[nH]1 [FLUOROURACIL] | 4.50 | 4.27 | < 3.70 | 4.28 | 4.30 | 4.38 | 4.07 | 4.26 | 4.42 |
| CC1(C)CC[C@]2(C(=O)OCCCCCCn3cc(F)c(=O)n(CCCCCCOC(=O)[C@]45CCC(C)(C)C[C@H]4C4=CC[C@@H]6[C@@]7(C)CC[C@H](O)C(C)(C)[C@@H]7CC[C@@]6(C)[C@]4(C)CC5)c3=O)CC[C@]3(C)C(=CC[C@@H]4[C@@]5(C)CC[C@H](O)C(C)(C)[C@@H]5CC[C@]43C)[C@@H]2C1 |  | < 3.70 | < 3.70 | < 3.70 | < 3.70 | < 3.70 |  |  |  |
| C[C@H]1[C@H](C)CC[C@]2(C(=O)OCCCCCCCCn3cc(F)c(=O)[nH]c3=O)CC[C@]3(C)C(=CC[C@@H]4[C@@]5(C)CC[C@H](O)C(C)(C)[C@@H]5CC[C@]43C)[C@H]12 |  | < 3.70 | < 3.70 | < 3.70 | < 3.70 | < 3.70 |  |  |  |
| CC1(C)[C@@H](O)CC[C@]2(C)[C@H]3C(=O)C=C4[C@@H]5C[C@@](C)(C(=O)OCCCCCCn6cc(F)c(=O)n(CCCCCCOC(=O)[C@@]7(C)CC[C@]8(C)CC[C@]9(C)C(=CC(=O)[C@@H]%10[C@@]%11(C)CC[C@H](O)C(C)(C)[C@@H]%11CC[C@]%109C)[C@@H]8C7)c6=O)CC[C@]5(C)CC[C@@]4(C)[C@]3(C)CC[C@@H]12 |  | < 3.70 | < 3.70 | < 3.70 | < 3.70 | < 3.70 |  |  |  |
| CC1(C)[C@@H](O)CC[C@]2(C)[C@H]3C(=O)C=C4[C@@H]5C[C@@](C)(C(=O)OCCCCCCn6cc(F)c(=O)[nH]c6=O)CC[C@]5(C)CC[C@@]4(C)[C@]3(C)CC[C@@H]12 |  | 4.39 | 4.14 | 4.30 | 4.31 | 4.46 |  |  |  |
| C[C@H]1[C@H](C)CC[C@]2(C(=O)OCCCCCCn3cc(F)c(=O)[nH]c3=O)CC[C@]3(C)C(=CC[C@@H]4[C@@]5(C)CC[C@H](O)C(C)(C)[C@@H]5CC[C@]43C)[C@H]12 |  | 4.49 | 4.65 | 4.72 | 4.76 | 4.83 |  |  |  |
| CC1(C)CC[C@]2(C(=O)OCCCCCCCCn3cc(F)c(=O)[nH]c3=O)CC[C@]3(C)C(=CC[C@@H]4[C@@]5(C)CC[C@H](O)C(C)(C)[C@@H]5CC[C@]43C)[C@@H]2C1 | < 3.70 | 4.36 | < 3.70 | 4.27 | 4.30 | 4.64 | 4.37 | 3.78 | 4.50 |
| CC1(C)[C@@H](O)CC[C@]2(C)[C@H]3C(=O)C=C4[C@@H]5C[C@@](C)(C(=O)O)CC[C@]5(C)CC[C@@]4(C)[C@]3(C)CC[C@@H]12 [ENOXOLONE] | 4.06 | < 3.70 | < 3.70 | < 3.70 | < 3.70 | < 3.70 | 4.00 | 4.13 | 4.16 |
| CC1(C)[C@@H](O)CC[C@]2(C)[C@H]3C(=O)C=C4[C@@H]5C[C@@](C)(C(=O)OCCCCCCCCn6cc(F)c(=O)n(CCCCCCCCOC(=O)[C@@]7(C)CC[C@]8(C)CC[C@]9(C)C(=CC(=O)[C@@H]%10[C@@]%11(C)CC[C@H](O)C(C)(C)[C@@H]%11CC[C@]%109C)[C@@H]8C7)c6=O)CC[C@]5(C)CC[C@@]4(C)[C@]3(C)CC[C@@H]12 |  | < 3.70 | < 3.70 | < 3.70 | < 3.70 | < 3.70 |  |  |  |
| C[C@H]1[C@H](C)CC[C@]2(C(=O)OCCCCCCCCn3cc(F)c(=O)n(CCCCCCCCOC(=O)[C@@]45CC[C@]6(C)C(=CC[C@@H]7[C@@]8(C)CC[C@H](O)C(C)(C)[C@@H]8CC[C@]76C)[C@@H]4C[C@@H](C)[C@H](C)C5)c3=O)CC[C@]3(C)C(=CC[C@@H]4[C@@]5(C)CC[C@H](O)C(C)(C)[C@@H]5CC[C@]43C)[C@H]12 |  | < 3.70 | < 3.70 | < 3.70 | < 3.70 | < 3.70 |  |  |  |
| CC1(C)CC[C@]2(C(=O)OCCCCCCCCn3cc(F)c(=O)n(CCCCCCCCOC(=O)[C@]45CCC(C)(C)C[C@H]4C4=CC[C@@H]6[C@@]7(C)CC[C@H](O)C(C)(C)[C@@H]7CC[C@@]6(C)[C@]4(C)CC5)c3=O)CC[C@]3(C)C(=CC[C@@H]4[C@@]5(C)CC[C@H](O)C(C)(C)[C@@H]5CC[C@]43C)[C@@H]2C1 |  | < 3.70 | < 3.70 | < 3.70 | < 3.70 | < 3.70 |  |  |  |
| CC1(C)CC[C@]2(C(=O)O)CC[C@]3(C)C(=CC[C@@H]4[C@@]5(C)CC[C@H](O)C(C)(C)[C@@H]5CC[C@]43C)[C@@H]2C1 [OLEANOLIC_ACID] | < 3.70 | 4.22 | < 3.70 | < 3.70 | 4.38 | < 3.70 | < 3.70 | < 3.70 | < 3.70 |
| C[C@H]1[C@H](C)CC[C@]2(C(=O)OCCCCCCn3cc(F)c(=O)n(CCCCCCOC(=O)[C@@]45CC[C@]6(C)C(=CC[C@@H]7[C@@]8(C)CC[C@H](O)C(C)(C)[C@@H]8CC[C@]76C)[C@@H]4C[C@@H](C)[C@H](C)C5)c3=O)CC[C@]3(C)C(=CC[C@@H]4[C@@]5(C)CC[C@H](O)C(C)(C)[C@@H]5CC[C@]43C)[C@H]12 |  | < 3.70 | < 3.70 | < 3.70 | < 3.70 | < 3.70 |  |  |  |
